This passage reports TGI results from PubChem BioAssay (NCI).

Some test systems named below: SK-OV-3 ovarian; M14 melanoma; HS 578T breast; OVCAR-5 ovarian; ACHN renal; NCI-H522 lung; PC-3 prostate; COLO 205 colon; OVCAR-3 ovarian; MDA-MB-231 breast.
Test in all cases: NCI anticancer screen, dose series, 48 h

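Values below derive from 48-hour exposures of cells grown in 96-well plates, with endpoints linearly interpolated between the two concentrations bracketing the appropriate inhibition level. TGI: total growth inhibition.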 Where only a bound is given, the exact number is not on record here.

Turning to `CC1=NN2C(=N)/C(=C/c3ccc(F)cc3)C(=O)N=C2S1`, the TGI with SK-OV-3 ovarian, in the assay on M14 melanoma, with HS 578T breast, with OVCAR-5 ovarian, in the assay on ACHN renal and in the assay with NCI-H522 lung was above 100 µM in each case. The TGI in the assay on PC-3 prostate, in the assay with COLO 205 colon, in the assay with OVCAR-3 ovarian and in the assay on MDA-MB-231 breast was above 100 µM each time.

In the case of `Cc1c(C(=O)NNc2ccccc2)n2c(=S)[nH]nc2c2ccccc12`, the TGI in the assay with SK-OV-3 ovarian, in the assay with M14 melanoma, in the assay with HS 578T breast, in the assay on OVCAR-5 ovarian, in the assay on ACHN renal and in the assay with NCI-H522 lung was above 100 µM in each case. Besides, the TGI in the assay on PC-3 prostate, in the assay on COLO 205 colon, in the assay with OVCAR-3 ovarian and with MDA-MB-231 breast was above 100 µM each time.

In the case of `CC(C)=CCC[C@@H](C)C1=C(Nc2ccccc2F)C(O)=C(C)C(=O)C1=O`, the TGI with SK-OV-3 ovarian is 73.3 µM; with M14 melanoma it was above 100 µM; in the assay with HS 578T breast, 57.1 µM; with OVCAR-5 ovarian, above 100 µM; with ACHN renal it was 14.3 µM; in the assay on NCI-H522 lung, 17.1 µM. Also, the TGI in the assay on PC-3 prostate was above 100 µM; in the assay with COLO 205 colon, 12.4 µM; in the assay on OVCAR-3 ovarian it was above 100 µM; in the assay on MDA-MB-231 breast, above 100 µM.

Take `Oc1ccccc1/C=N/N1C(=S)N(C23CC4CC(CC(C4)C2)C3)C(=Nc2ccccc2)C1=Nc1ccccc1`: the TGI in the assay on SK-OV-3 ovarian, in the assay on M14 melanoma, in the assay on HS 578T breast, with OVCAR-5 ovarian, in the assay on ACHN renal and in the assay with NCI-H522 lung was above 100 µM each time. Besides, the TGI with PC-3 prostate, in the assay with COLO 205 colon, with OVCAR-3 ovarian and in the assay with MDA-MB-231 breast was above 100 µM each time.

Consider `CCn1ncc2c(=O)n3ncn(-c4ccc(Br)cc4)c3nc21`, for which the TGI in the assay on SK-OV-3 ovarian, with M14 melanoma, in the assay with HS 578T breast, in the assay on OVCAR-5 ovarian, in the assay on ACHN renal and in the assay with NCI-H522 lung was above 100 µM each time. In addition, the TGI with PC-3 prostate, with COLO 205 colon, in the assay on OVCAR-3 ovarian and in the assay with MDA-MB-231 breast was above 100 µM in each case.

In the case of `COc1cc2c(cc1OCc1ccccc1)NC(=O)[C@@H]1CCCN1C2=O`, the TGI in the assay on SK-OV-3 ovarian, with M14 melanoma, in the assay with HS 578T breast, in the assay on OVCAR-5 ovarian, with ACHN renal and in the assay on NCI-H522 lung was above 100 µM each time. The TGI in the assay on PC-3 prostate, in the assay on COLO 205 colon, in the assay on OVCAR-3 ovarian and in the assay on MDA-MB-231 breast was above 100 µM each time.

`O=C1c2cc3c(cc2CC12Cc1ccc4c(c1C2=O)CCC4)CCC3` (stereo not given): the TGI with SK-OV-3 ovarian, in the assay with M14 melanoma, with HS 578T breast, with OVCAR-5 ovarian, in the assay on ACHN renal and in the assay with NCI-H522 lung was above 100 µM each time. The TGI in the assay on PC-3 prostate, with OVCAR-3 ovarian and with MDA-MB-231 breast was above 100 µM each time.

Consider `CO[P@@]1(=O)O[C@@H](c2ccccc2)[C@H](O)[C@]1(O)c1ccccc1`, for which the TGI with SK-OV-3 ovarian, with M14 melanoma, with HS 578T breast, in the assay with ACHN renal, in the assay on NCI-H522 lung and with PC-3 prostate was above 100 µM each time. Further, the TGI in the assay with COLO 205 colon, in the assay with OVCAR-3 ovarian and in the assay with MDA-MB-231 breast was above 100 µM each time.

Turning to `O=C1CC[C@@]23CC(=O)O[C@@H]2CCCC3C1` (stereo not given in full), the TGI in the assay on SK-OV-3 ovarian, in the assay with M14 melanoma, with HS 578T breast, with OVCAR-5 ovarian, in the assay with ACHN renal and in the assay with NCI-H522 lung was above 100 µM throughout. The TGI with PC-3 prostate, with COLO 205 colon and in the assay with MDA-MB-231 breast was above 100 µM in each case.

In the case of `OC(CC(O)(C(F)(F)Cl)C(F)(F)Cl)c1ccccc1` (stereo not given), the TGI in the assay with SK-OV-3 ovarian, in the assay on HS 578T breast, with OVCAR-5 ovarian, in the assay on ACHN renal, in the assay on NCI-H522 lung and in the assay with PC-3 prostate was above 10 µM in each case. For the same molecule, the TGI in the assay on COLO 205 colon, in the assay on OVCAR-3 ovarian and with MDA-MB-231 breast was above 10 µM throughout.

As to `COC1(CC[C@H](C)COC2OC(CO)C(O)C(O)C2O)O[C@H]2C[C@H]3[C@@H]4CC=C5C[C@@H](OC6OC(CO)C(OC7OC(C)C(O)C(O)C7O)C(O)C6OC6OC(C)C(O)C(O)C6O)CC[C@]5(C)[C@H]4CC[C@]3(C)[C@H]2[C@@H]1C` (stereo not given in full), the TGI is 7.99 µM in the assay with SK-OV-3 ovarian; 6.72 µM with HS 578T breast; above 35.5 µM in the assay with OVCAR-5 ovarian; 29.4 µM in the assay with ACHN renal; 5.31 µM in the assay on NCI-H522 lung; 11.9 µM with PC-3 prostate. Further, the TGI in the assay on COLO 205 colon was determined as 64 µM; in the assay with OVCAR-3 ovarian, 17.6 µM; in the assay with MDA-MB-231 breast, 21.1 µM.
